Laboratory results taken from ChEMBL document CHEMBL3603802, “Design and synthesis of new non nucleoside inhibitors of DNMT3A” (Bioorg Med Chem, 2015).

Legend:
[1] = Antiproliferative activity against human KG1 cells after 2 to 4 days by ATPlite 1step luminescence assay; assay type: functional, cell-based; conditions: KG-1
HCT-116 = assay: Antiproliferative activity against human HCT116 cells after 2 to 4 days by ATPlite 1step luminescence assay; assay type: functional, cell-based
[2] = biological target: T1, DNA (cytosine-5)-methyltransferase 3A (Homo sapiens, UniProt Q9Y6K1); assay: Inhibition of human C-terminal DNMT3A at 32 uM after 1 hr by fluorescence assay
T1 sequence (Q9Y6K1 whole entry, looked up): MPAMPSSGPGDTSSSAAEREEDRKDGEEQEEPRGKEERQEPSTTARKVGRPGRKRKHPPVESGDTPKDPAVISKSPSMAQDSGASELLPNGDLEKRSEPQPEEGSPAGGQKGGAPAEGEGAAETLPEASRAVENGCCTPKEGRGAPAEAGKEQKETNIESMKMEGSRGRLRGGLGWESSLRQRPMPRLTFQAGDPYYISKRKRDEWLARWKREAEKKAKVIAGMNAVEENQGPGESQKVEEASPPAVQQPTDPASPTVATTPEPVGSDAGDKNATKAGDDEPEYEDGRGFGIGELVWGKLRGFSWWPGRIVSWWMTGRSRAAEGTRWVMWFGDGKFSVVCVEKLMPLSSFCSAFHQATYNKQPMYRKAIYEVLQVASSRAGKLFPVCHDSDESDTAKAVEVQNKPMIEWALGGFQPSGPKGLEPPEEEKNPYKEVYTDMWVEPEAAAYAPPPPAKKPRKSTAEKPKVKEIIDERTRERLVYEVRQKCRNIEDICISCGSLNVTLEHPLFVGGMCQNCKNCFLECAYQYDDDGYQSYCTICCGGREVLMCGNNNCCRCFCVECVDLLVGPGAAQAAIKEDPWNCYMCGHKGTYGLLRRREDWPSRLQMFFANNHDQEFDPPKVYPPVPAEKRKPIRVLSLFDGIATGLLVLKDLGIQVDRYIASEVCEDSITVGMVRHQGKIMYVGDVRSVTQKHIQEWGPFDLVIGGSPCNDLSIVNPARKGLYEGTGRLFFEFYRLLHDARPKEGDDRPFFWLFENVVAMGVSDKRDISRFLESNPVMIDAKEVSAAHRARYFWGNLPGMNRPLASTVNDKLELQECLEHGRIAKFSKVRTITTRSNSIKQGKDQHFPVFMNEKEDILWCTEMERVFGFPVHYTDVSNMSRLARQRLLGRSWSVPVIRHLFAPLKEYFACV

[3] = Antiproliferative activity against human KARPAS299 cells after 2 to 4 days by ATPlite 1step luminescence assay; assay type: functional, cell-based; conditions: KARPAS-299
[4] = biological target: T1, DNA (cytosine-5)-methyltransferase 3A; assay: Inhibition of human C-terminal DNMT3A at 20 uM after 1 hr by fluorescence assay
[5] = Chemical stability of the compound in DMSO by HPLC analysis; assay type: physicochemical
[6] = biological target: T1, DNA (cytosine-5)-methyltransferase 3A; assay: Inhibition of human C-terminal DNMT3A after 1 hr by fluorescence assay
[7] = Chemical stability of the compound after 30 mins by LC-MS analysis in presence of glutathione; assay type: physicochemical; conditions: 0.5 h
[8] = biological target: DNA (cytosine-5)-methyltransferase 1 (Homo sapiens) (UniProt P26358); assay: Inhibition of human His-DNMT1 using [methyl-3H]SAM as substrate at 100 uM after 2 hrs
DNA (cytosine-5)-methyltransferase 1 (Homo sapiens), sequence (P26358 whole entry): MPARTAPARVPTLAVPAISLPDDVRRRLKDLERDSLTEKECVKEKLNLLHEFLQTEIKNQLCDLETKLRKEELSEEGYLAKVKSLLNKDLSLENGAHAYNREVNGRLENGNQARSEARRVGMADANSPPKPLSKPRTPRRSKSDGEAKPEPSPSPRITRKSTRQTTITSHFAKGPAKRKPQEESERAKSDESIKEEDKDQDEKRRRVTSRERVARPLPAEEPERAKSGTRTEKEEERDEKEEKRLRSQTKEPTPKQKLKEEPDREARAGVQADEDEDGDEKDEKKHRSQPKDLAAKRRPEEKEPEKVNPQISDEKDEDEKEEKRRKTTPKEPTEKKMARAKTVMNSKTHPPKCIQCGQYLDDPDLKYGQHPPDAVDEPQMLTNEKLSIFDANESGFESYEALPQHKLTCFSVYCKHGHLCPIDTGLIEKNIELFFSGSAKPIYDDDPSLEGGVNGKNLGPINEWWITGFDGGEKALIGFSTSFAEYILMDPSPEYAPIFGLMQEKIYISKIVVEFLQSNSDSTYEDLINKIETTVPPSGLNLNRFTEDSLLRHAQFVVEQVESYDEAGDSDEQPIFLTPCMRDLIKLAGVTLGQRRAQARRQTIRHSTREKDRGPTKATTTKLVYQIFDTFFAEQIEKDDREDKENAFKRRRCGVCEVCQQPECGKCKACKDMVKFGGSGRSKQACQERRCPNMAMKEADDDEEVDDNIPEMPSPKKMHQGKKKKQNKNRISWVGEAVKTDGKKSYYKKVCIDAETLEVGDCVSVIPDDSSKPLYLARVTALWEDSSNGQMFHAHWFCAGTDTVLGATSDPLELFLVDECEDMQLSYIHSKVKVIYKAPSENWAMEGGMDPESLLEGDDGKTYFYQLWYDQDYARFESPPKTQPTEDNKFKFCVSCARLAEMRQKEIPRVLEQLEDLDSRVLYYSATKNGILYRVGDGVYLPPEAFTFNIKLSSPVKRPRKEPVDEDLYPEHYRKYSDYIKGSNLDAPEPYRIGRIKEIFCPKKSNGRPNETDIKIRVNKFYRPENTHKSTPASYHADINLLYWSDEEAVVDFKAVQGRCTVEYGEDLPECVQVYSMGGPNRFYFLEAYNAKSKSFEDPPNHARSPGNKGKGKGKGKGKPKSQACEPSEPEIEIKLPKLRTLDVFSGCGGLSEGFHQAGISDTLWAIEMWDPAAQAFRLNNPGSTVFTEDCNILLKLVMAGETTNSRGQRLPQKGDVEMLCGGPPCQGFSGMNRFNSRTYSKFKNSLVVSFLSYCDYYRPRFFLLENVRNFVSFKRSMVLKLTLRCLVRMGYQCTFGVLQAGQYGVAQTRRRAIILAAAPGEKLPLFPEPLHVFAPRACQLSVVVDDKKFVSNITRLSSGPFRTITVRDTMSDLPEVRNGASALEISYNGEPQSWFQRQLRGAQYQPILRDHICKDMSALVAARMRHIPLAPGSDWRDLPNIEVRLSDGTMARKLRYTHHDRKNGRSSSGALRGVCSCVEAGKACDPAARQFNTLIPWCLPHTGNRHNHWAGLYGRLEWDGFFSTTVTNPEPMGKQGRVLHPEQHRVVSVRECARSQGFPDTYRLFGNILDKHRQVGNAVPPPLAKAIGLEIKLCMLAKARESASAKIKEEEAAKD

[9] = biological target: DNA (cytosine-5)-methyltransferase 1 (Homo sapiens) (UniProt P26358); assay: Inhibition of human His-DNMT1 using [methyl-3H]SAM as substrate at 32 uM after 2 hrs

Compound	inhibition [2] [%]	inhibition [4] [%]	other results
CCSCC(C(=O)c1ccc(OC)cc1)n1cnc2ccccc21 (stereo unspecified)	0		EC50 [1]: > 10 µM; EC50 (HCT-116): > 10 µM; EC50 [3]: > 10 µM
CCSCC(Cn1cnc2ccccc21)C(=O)c1ccc(Cl)cc1 (stereo unspecified)		23	
CCSC(C(=O)c1ccc(Cl)cc1)n1cnc2ccccc21 (stereo unspecified)		15	
O=C(c1ccc(Cl)cc1)C(CSCc1ccco1)n1cnc2ccccc21 (stereo unspecified)	55		
CCSCC(C(O)c1ccc(Cl)cc1)n1cnc2ccccc21 (stereo unspecified)		4	
O=C(Cn1cnc2ccccc21)c1ccc(Cl)cc1	12		
CN(C)/C=C(/C(=O)c1ccc(Cl)cc1)n1cnc2ccccc21	0		Stability [5]: Stable
CC(C)SCC(C(=O)c1ccc(Cl)cc1)n1cnc2ccccc21 (stereo unspecified)		43	
COc1ccc(CSCC(C(=O)c2ccc(Cl)cc2)n2cnc3ccccc32)cc1 (stereo unspecified)	34		
CCSCC(Cn1cccn1)C(=O)c1ccc(Cl)cc1 (stereo unspecified)		18	
O=C(c1ccc(Cl)cc1)C(CSc1ncc[nH]1)n1cnc2ccccc21 (stereo unspecified)	38		
C=C(C(=O)c1ccc(Cl)cc1)n1cnc2ccccc21	81		EC50 [6]: 4 µM; Stability [7]: Unstable
CCSCC(C(=O)c1ccc(Cl)cc1)n1ccnc1 (stereo unspecified)		43	
CCSCC(C(=O)c1ccccc1)n1cnc2ccccc21 (stereo unspecified)	34		
CCSCC(C(=O)c1ccc(Cl)cc1)n1cnc2c(N)ncnc21 (stereo unspecified)	0		
CCOCC(C(=O)c1ccc(Cl)cc1)n1cnc2ncnc(N)c21 (stereo unspecified)	70		Stability [5]: Unstable; inhibition [8]: 29%; EC50 [6]: 2.1 µM
O=C(c1ccc(Cl)cc1)C(CSCc1ncccn1)n1cnc2ccccc21 (stereo unspecified)	43		
CC(C)(C)SC(C(=O)c1ccc(Cl)cc1)n1cnc2ccccc21 (stereo unspecified)		10	

Compound	inhibition [2] [%]	inhibition [4] [%]	other results
O=C(/C(=C/C=C/c1ccccc1)n1cnc2ccccc21)c1ccc(Cl)cc1	0		Stability [5]: Stable
O=C(c1ccc(Cl)cc1)C(CSCc1ccccc1)n1cnc2ccccc21 (stereo unspecified)	25	69	
CCSCC(C(=O)c1ccc(Cl)c(Cl)c1)n1cnc2ccccc21 (stereo unspecified)	38		EC50 [1]: 3.7 µM; EC50 (HCT-116): 3.1 µM; EC50 [3]: > 10 µM
CCSCC(C(OC)c1ccc(Cl)cc1)n1cnc2ccccc21 (stereo unspecified)		5	
O=C(c1ccc(Cl)cc1)C(SC1CCCCC1)n1cnc2ccccc21 (stereo unspecified)		21	
CCSCC(C(=O)c1ccc(Cl)cc1)n1cnc2ccccc21 (stereo unspecified)	45	70	Stability [5]: Unstable; inhibition [8]: 22%; EC50 [6]: 3 µM; inhibition [9]: 70%
O=C(c1ccc(Cl)cc1)C(CSC1CCCCC1)n1cnc2ccccc21 (stereo unspecified)		44	
CC(C)(C)SCC(C(=O)c1ccc(Cl)cc1)n1cnc2ccccc21 (stereo unspecified)		40	
CCSCC(C(=O)c1ccc(Cl)cc1)n1cnc2ncnc(N)c21 (stereo unspecified)	54		
CC(C)SC(C(=O)c1ccc(Cl)cc1)n1cnc2ccccc21 (stereo unspecified)		5	
CCOC(c1ccc(Cl)cc1)C(CSCC)n1cnc2ccccc21 (stereo unspecified)		9	
CCOCC(C(=O)c1ccc(Cl)cc1)n1cnc2ccccc21 (stereo unspecified)	63		
O=C(c1ccc(Cl)cc1)C(CSCC1CCCC1)n1cnc2ccccc21 (stereo unspecified)	36		
CCSCC(C(=O)c1ccc(Cl)cc1)n1cccn1 (stereo unspecified)		17	
CCSCC(Cn1ccnc1)C(=O)c1ccc(Cl)cc1 (stereo unspecified)		9	
O=C(c1ccc(Cl)cc1)C(CSCc1cccc([N+](=O)[O-])c1)n1cnc2ccccc21 (stereo unspecified)	40		
Cc1cc(Nc2ccc(NC(=O)c3ccc(Nc4ccnc5ccccc45)cc3)cc2)nc(N)n1			EC50 [1]: 4.4 µM; EC50 (HCT-116): > 10 µM; EC50 [3]: 1.8 µM
